Results on eight compounds are retold here after PubChem BioAssay AID2060508 (Molecular Pharmacology Branch, DTP, NCI, 2025).

Each structure is given as a SMILES string. “And” between values parts separate entries of the source, which are not always exact repeats. Equal entries are not always repeated.

The experiment deals with 454973-116-R2-J3-PDC spheroids, viability, % test/control. In words: Anticancer human tumor 454973-116-R2-J3-PDC patient-derived pancreatic carcinoma cell line growth inhibition [GQUAD]. The conditions noted are these: spheroids with HUVEC and MSC; for viability, T/C: stronger effect = lower value. From the text: DNA G-quadruplex Stabilizer Agents in Combinations in Complex Spheroids
A high-throughput screen of multi-cell type tumor spheroids was designed to identify active combinations of DNA G-quadruplex stabilizer agents and targeted small molecules. Complex spheroids include a stromal component modeled by human endothelial cells (HUVEC) and fibroblasts modeled by human mesenchymal stem cells (MSCs). The concentration ranges selected for each drug and investigational agent were based upon clinically achievable concentrations if the clinical Cmax of the agent was known.
Compounds. The drugs and investigational agents: pidnarulex (CX-5461; NSC782164), APTO-253 (NSC789042), BRACO-19 (NSC847499), peposertib (NSC802822), ceralasertib (NSC780249), elimusertib (NSC800525), camonsertib (NSC841442), AZD-1390 (NSC803789), olaparib (NSC753686), talazoparib (NSC767125), ART-558 (NSC835418), sotorasib (NSC818433), MRTX-1133 (NSC836407), SN-38 (NSC673596), topotecan (NSC609699), etoposide (NSC141540), doxorubicin (NSC123127), gemcitabine (NSC613327), 5-fluorouracil (NSC19893), paclitaxel (NSC125973), vemurafenib (NSC761431), panobinostat (NSC761190), R-306465 (JNJ-16241199; NSC773264), adavosertib (NSC754352), TP-3654 (NSC805149), carboplatin (NSC241240), KSQ-4279 (NSC840948), and staurosporine (NSC755774) were obtained from the National Cancer Institute (NCI) Developmental Therapeutics Program Chemical Repository (34). The FDA-approved anticancer drug set is available from the NCI Developmental Therapeutics Program. […] The stock solutions were prepared in dimethyl sulfoxide (DMSO, Sigma-Aldrich, St. Louis, MO, cat. D2650) at 800-fold the tested concentration and stored at -70 degrees C prior to their use. All drugs and investigational agents were tested over a range starting from a high concentration at or near the clinical Cmax and decreasing in half-log increments. If the clinical Cmax for an agent had not been determined, the highest concentration tested was 10 microM.
2.3 Cell Culture. All cells were maintained in an incubator at 37 degrees C and 5% CO2 with 95% humidity. The PDC lines were cultured according to standard operating procedures established by the NCI PDMR. All PDCs were thawed and cultured in Matrigel-coated flasks prepared with a working solution of 1X Ham's F-12 nutrient mix, without supplementation (Invitrogen, cat. 11765054), 100 U/mL penicillin-streptomycin (Invitrogen, cat. 15140122), and 2.5% Matrigel (Corning Inc., cat. 354248) for the first three passages. The 857933-349-R-J2-PDC line was cultured in 6C/Colon 1B media, which includes advanced DMEM/F-12 (Thermo Fisher Scientific, cat. 12634028), 10 mM HEPES (Thermo Fisher Scientific, cat. 15630080), 1X GlutaMAX supplement (Thermo Fisher Scientific, cat. 35050061), 0.1 mg/mL primocin (InvivoGen, cat. ant-pm-2), 10% defined fetal bovine serum, heat inactivated (HyClone Laboratories Inc., cat. SH30070.03HI), 50% L-WRN conditioned media (ATCC, cat. CRL-3276), 1.25 mM N-Acetyl-L-cysteine (Sigma-Aldrich, cat. A9165), 10 mM nicotinamide (Sigma-Aldrich, cat. N0636), 1X B-27 supplement (Thermo Fisher Scientific, cat. 17504044), 1X N-2 supplement (Thermo Fisher Scientific, cat. 17502048), 10 microM Y-27632 dihydrochloride (Tocris Bioscience, cat. 1254), and 50 ng/mL human EGF recombinant protein (Thermo Fisher Scientific, cat. PHG0311). The 485176-168-R4-J1-PDC line was cultured in Panc media, which includes all 6C/Colon 1B media components plus 100 ng/mL human FGF-10 (Thermo Fisher Scientific, cat. 100-26), 500 nM SB-431542 (Selleckchem, cat. S1067), and gastrin (Tocris, cat. 3006).
[…]
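Further: spheroids exposed to compounds for seven days.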

Broadly, the viability, T/C is the result in the treated group divided by that in the control group, in per cent. Usually IC50 stands for the concentration that inhibits the measured activity by half. As to `C#Cc1c(F)ccc2cc(O)cc(-c3ncc4c(N5CC6CCC(C5)N6)nc(OCC56CCCN5CC(F)C6)nc4c3F)c12` (stereo unspecified), the viability, T/C (compound 0.0316 µM) is 52.7% and 54.6% and 60.6%; the viability, T/C (compound 0.1 µM) was 42.3% and 39% and 39.8%; the viability, T/C (compound 0.316 µM) was 31.2% and 22.9% and 28.2%; the viability, T/C (compound 1 µM) was 27.5% and 20.6% and 21.6%; the viability, T/C (compound 3.16 µM) was 23.3% and 19.5% and 22%; the viability, T/C (compound 10 µM) was 19% and 15.4% and 15.2%. Besides, where the note is “curve of compound”, the IC50 was 42.3 nM and 44.4 nM and 56.7 nM.
With `C=CCn1c(=O)c2cnc(Nc3ccc(N4CCN(C)CC4)cc3)nc2n1-c1cccc(C(C)(C)O)n1`, the viability, T/C was 108% (2×) and 104% (compound 0.0316 µM); 104% and 86.2% and 90.6% (compound 0.1 µM); 54.8% and 68.5% and 59.1% (compound 0.316 µM); 17.5% and 15.8% and 14.5% (compound 1 µM); 7.41% and 7.71% and 9.27% (compound 3.16 µM); 9.65% and 8.23% and 9.05% (compound 10 µM). Moreover, the half-inhibitory concentration (IC50) (curve of compound) was 373 nM and 456 nM and 387 nM.
Regarding `CC(=O)O[C@H]1C(=O)[C@@]2(C)[C@H]([C@H](OC(=O)c3ccccc3)[C@]3(O)C[C@H](OC(=O)[C@H](O)[C@@H](NC(=O)c4ccccc4)c4ccccc4)C(C)=C1C3(C)C)[C@]1(OC(C)=O)CO[C@@H]1C[C@@H]2O`, the viability, T/C by setting is: (compound 0.0316 µM) 16.1% and 19.8% and 21.1%; (compound 0.1 µM) 8.55% and 9.04% and 12.4%; (compound 0.316 µM) 7.38% and 7.58% and 9.89%; (compound 1 µM) 7.17% and 7.18% and 9.08%; (compound 3.16 µM) 6.82% and 7.18% and 9.43%; (compound 10 µM) 9.29% and 10.2% and 11.2%. Besides, the IC50 (curve of compound) is < 31.6 nM.
For `CC(C)(O)C1CCC(Nc2ccc3ncc(-c4cccc(C(F)(F)F)c4)n3n2)CC1` (stereo unspecified), the viability, T/C by setting is: (compound 0.0316 µM) 105% and 109% and 106%; (compound 0.1 µM) 99.6% and 101% and 93.8%; (compound 0.316 µM) 98.4% and 95.2% and 111%; (compound 1 µM) 77.4% and 76.5% and 90.4%; (compound 3.16 µM) 30.5% and 26.7% and 22.5%; (compound 10 µM) 35% and 28.9% and 29.6%. Moreover, for the setting “curve of compound”, the IC50 is 2030 nM and 1880 nM and 2060 nM.
Take `CCCS(=O)(=O)Nc1ccc(F)c(C(=O)c2c[nH]c3ncc(-c4ccc(Cl)cc4)cc23)c1F`: the viability, T/C was 105% and 121% and 109% (compound 0.0316 µM); 108% and 104% and 96.3% (compound 0.1 µM); 120% and 112% and 102% (compound 0.316 µM); 111% and 113% and 112% (compound 1 µM); 115% and 99.8% and 108% (compound 3.16 µM); 7.3% and 7.67% and 14.8% (compound 10 µM). Besides, the IC50 (curve of compound) was 6250 nM and 5890 nM and 6400 nM.
Consider `COc1ncnc(C2CC2)c1-c1ncc2cnn(Cc3ccc(-c4nc(C(F)(F)F)cn4C(C)C)cc3)c2n1`, for which the viability, T/C was 93.7% and 116% and 113% (compound 0.0316 µM); 103% (2×) and 110% (compound 0.1 µM); 94.6% and 105% and 101% (compound 0.316 µM); 94.7% and 98.2% and 94.5% (compound 1 µM); 114% and 109% and 97.9% (compound 3.16 µM); 99.9% and 102% (2×) (compound 10 µM). Besides, the half-inhibitory concentration (IC50) (curve of compound) was > 10000 nM.
Regarding `O=C(NO)c1cnc(N2CCN(S(=O)(=O)c3ccc4ccccc4c3)CC2)nc1`, the viability, T/C reads like this: (compound 0.0316 µM) 107% and 108% and 101%; (compound 0.1 µM) 78.2% and 86.9% and 86.3%; (compound 0.316 µM) 27.8% and 30.5% and 22.7%; (compound 1 µM) 1.65% and 3.03% and 1.16%; (compound 3.16 µM) 0.25% and 0.22% and 0.12%; (compound 10 µM) 0.25% and 0.95% and 0.29%. Besides, the IC50 (curve of compound) is 189 nM and 212 nM and 193 nM.
For `CC1COCCN1c1cc(C2(S(C)(=N)=O)CC2)nc(-c2ccnc3[nH]ccc23)n1` (stereo unspecified) + CN(C)c1ccc(Nc2c3ccc(NC(=O)CCN4CCCC4)cc3nc3cc(NC(=O)CCN4CCCC4)ccc23)cc1, the 50% inhibitory concentration (IC50) is, setting by setting: (curve of first compound, second compound 0.0316 µM) 5380 nM; (curve of first compound, second compound 0.1 µM) 5350 nM; (curve of first compound, second compound 0.316 µM) 5980 nM; (curve of first compound, second compound 1 µM) 5140 nM; (curve of first compound, second compound 3.16 µM) 6070 nM; (curve of first compound, second compound 10 µM) 5840 nM. Besides, the viability, T/C (second compound 0.0316 µM, first compound 0.0316 µM) is 110%; the viability, T/C (second compound 0.0316 µM, first compound 0.1 µM) was 105%; the viability, T/C (second compound 0.0316 µM, first compound 0.316 µM) was 105%; the viability, T/C (second compound 0.0316 µM, first compound 1 µM) was 102%; the viability, T/C (second compound 0.0316 µM, first compound 3.16 µM) was 64.1%; the viability, T/C (second compound 0.0316 µM, first compound 10 µM) is 33.5%. The viability, T/C is 109% (second compound 0.1 µM, first compound 0.0316 µM); 99.4% (second compound 0.1 µM, first compound 0.1 µM); 115% (second compound 0.1 µM, first compound 0.316 µM); 108% (second compound 0.1 µM, first compound 1 µM); 62.9% (second compound 0.1 µM, first compound 3.16 µM); 34.5% (second compound 0.1 µM, first compound 10 µM). The viability, T/C (second compound 0.316 µM, first compound 0.0316 µM) was 104%; the viability, T/C (second compound 0.316 µM, first compound 0.1 µM) is 103%; the viability, T/C (second compound 0.316 µM, first compound 0.316 µM) was 99.8%; the viability, T/C (second compound 0.316 µM, first compound 1 µM) was 100%; the viability, T/C (second compound 0.316 µM, first compound 3.16 µM) is 71.1%; the viability, T/C (second compound 0.316 µM, first compound 10 µM) is 33%. For the same compound, the viability, T/C (second compound 1 µM, first compound 0.0316 µM) was 94.4%; the viability, T/C (second compound 1 µM, first compound 0.1 µM) is 95.1%; the viability, T/C (second compound 1 µM, first compound 0.316 µM) was 110%; the viability, T/C (second compound 1 µM, first compound 1 µM) was 77.2%; the viability, T/C (second compound 1 µM, first compound 3.16 µM) is 63.9%; the viability, T/C (second compound 1 µM, first compound 10 µM) is 34.3%. In addition, the viability, T/C is, setting by setting: (second compound 3.16 µM, first compound 0.0316 µM) 89%; (second compound 3.16 µM, first compound 0.1 µM) 90.8%; (second compound 3.16 µM, first compound 0.316 µM) 90.1%; (second compound 3.16 µM, first compound 1 µM) 82.8%; (second compound 3.16 µM, first compound 3.16 µM) 66.2%; (second compound 3.16 µM, first compound 10 µM) 37.7%. The viability, T/C (second compound 10 µM, first compound 0.0316 µM) was 80.5%; the viability, T/C (second compound 10 µM, first compound 0.1 µM) was 82.1%; the viability, T/C (second compound 10 µM, first compound 0.316 µM) is 83.7%; the viability, T/C (second compound 10 µM, first compound 1 µM) is 78.4%; the viability, T/C (second compound 10 µM, first compound 3.16 µM) is 59.8%; the viability, T/C (second compound 10 µM, first compound 10 µM) was 41.5%.
